Test results reported in patent publication US5464796A, “7-isoindolinyl-quinolone-carboxylic acid derivatives” (Bayer Aktiengesellschaft, priority 1991, dated 1995).
Converted amounts (≈) assume the structure as drawn.

Columns and labels:
Assay in all cases: MIC by series dilution on Iso-Sensitest agar
[1] = system: E. coli; assay type: cell-based, Escherichia coli; details: 37° C., about 20 hours, 10^4 colony-forming particles per spot; for MIC: Escherichia coli, 20 h
Protocol: (§1) The minimum inhibitory concentrations (MIC) were determined by series dilution methods on Iso-Sensitest agar (Oxoid). A series of agar plates each containing active compound concentrations decreasing by twofold dilution each time were prepared for each test substance. The agar plates were inoculated with a Multipoint inoculator (Denley). Overnight cultures of the pathogens, which were first diluted so that each inoculum spot contained about 10^4 colony-forming particles, were used for the inoculation. The inoculated agar plates were incubated at 37° C. and the germ growth was read off after about 20 hours. The MIC value (μg/ml) indicates the lowest active compound concentration at which no growth was to be detected with the naked eye.
(§2) The MIC values of some of the compounds according to the invention are shown in the following table in comparison with 7-(4-amino-1,3-dihydro-isoindol-2-yl)-1-cyclopropyl-6,8-difluoro-1,4-dihydro-4-oxo-3-quinolinecarboxylic acid (EP 343,560, Example 2).

[2] = system: Klebsiella sp.; assay type: cell-based; details: strain 8085, 37° C., about 20 hours, 10^4 colony-forming particles per spot; for MIC: Klebsiella
Protocol: as §1, §2

[3] = system: Morganella morg.; assay type: cell-based; details: strain 932, 37° C., about 20 hours, 10^4 colony-forming particles per spot; for MIC: Morganella, 20 h
Protocol: as §1, §2

[4] = system: Providencia spp.; assay type: cell-based; details: strain 12012, 37° C., about 20 hours, 10^4 colony-forming particles per spot; for MIC: Providencia, 20 h
Protocol: as §1, §2

[5] = system: Staphyloccus aureus; assay type: cell-based, Staphylococcus aureus; details: 37° C., about 20 hours, 10^4 colony-forming particles per spot; for MIC: Staphylococcus aureus, 20 h
Protocol: as §1, §2

[6] = system: Enterocococus faecalis; assay type: cell-based, Enterococcus faecalis; details: 37° C., about 20 hours, 10^4 colony-forming particles per spot; for MIC: Enterococcus faecalis, 20 h
Protocol: as §1, §2

[7] = system: Pseudomonas aeruginasa; assay type: cell-based, Pseudomonas aeruginosa; details: strain Walter, 37° C., about 20 hours, 10^4 colony-forming particles per spot; for MIC: Pseudomonas, 20 h
Protocol: as §1, §2

Structure (SMILES)	MIC ([1]; strain 455/7) [µg/mL]	MIC ([1]; strain Neumann) [µg/mL]	MIC [2] [µg/mL]	MIC [3] [µg/mL]	MIC [4] [µg/mL]	MIC ([5]; strain 133) [µg/mL]	MIC ([5]; strain 1756) [µg/mL]	MIC ([6]; strain 9790) [µg/mL]	MIC ([6]; strain 27101) [µg/mL]	MIC [7] [µg/mL]	MIC values ([1]; strain 455/7)	MIC values ([1]; strain Neumann)	MIC values [2]	MIC values [3]	MIC values [4]	MIC values ([5]; strain 133)	MIC values ([5]; strain 1756)	MIC values ([6]; strain 9790)	MIC values ([6]; strain 27101)	MIC values [7] [µg/mL]
CNC1C=CC(C)C2CN(c3cc4c(cc3F)c(=O)c(C(=O)O)cn4C3CC3)CC12 (centres unmarked) [Example 5]	2 (≈ 4.86 µM)	0.06 (≈ 0.146 µM)	0.06 (≈ 0.146 µM)	0.06 (≈ 0.146 µM)	0.13 (≈ 0.316 µM)	0.02 (≈ 0.0486 µM)	0.02 (≈ 0.0486 µM)	0.03 (≈ 0.0729 µM)	0.03 (≈ 0.0729 µM)	2 (≈ 4.86 µM)										
CNC1C=CCC2CN(c3c(F)cc4c(=O)c(C(=O)O)cn(C5CC5)c4c3Cl)CC21 (centres unmarked) [Example 3, 8-chloro-1-cyclopropyl-6-fluoro-1,4-dihydro-7-(4-methylamino-1,3,3a,4,7,7a-hexahydro-isoindol-2-yl)-4-oxo-3-quinolinecarboxylic acid]	0.25 (≈ 0.579 µM)	0.02 (≈ 0.0463 µM)	0.03 (≈ 0.0695 µM)	0.03 (≈ 0.0695 µM)	0.03 (≈ 0.0695 µM)	0.02 (≈ 0.0463 µM)	0.02 (≈ 0.0463 µM)	0.02 (≈ 0.0463 µM)	0.02 (≈ 0.0463 µM)	0.5 (≈ 1.16 µM)										
CNC1C=CCC2CN(c3nc4c(cc3F)c(=O)c(C(=O)O)cn4-c3ccc(F)cc3F)CC21 (centres unmarked) [11 B]	16 (≈ 34 µM)	0.25 (≈ 0.531 µM)	0.5 (≈ 1.06 µM)	0.5 (≈ 1.06 µM)	0.5 (≈ 1.06 µM)	0.06 (≈ 0.128 µM)	0.06 (≈ 0.128 µM)	0.25 (≈ 0.531 µM)	0.25 (≈ 0.531 µM)	8 (≈ 17 µM)										
CNC1C=CCC2CN(c3cc4c(c(C)c3F)c(=O)c(C(=O)O)cn4C3CC3)CC21 (centres unmarked) [Example 4]	16 (≈ 38.9 µM)	0.13 (≈ 0.316 µM)	0.25 (≈ 0.608 µM)	0.5 (≈ 1.22 µM)	0.25 (≈ 0.608 µM)	0.03 (≈ 0.0729 µM)	0.03 (≈ 0.0729 µM)	0.13 (≈ 0.316 µM)	0.13 (≈ 0.316 µM)	16 (≈ 38.9 µM)										
CNC1C=CCC2CN(c3c(F)cc4c(=O)c(C(=O)O)cn(C5CC5)c4c3F)CC21 (centres unmarked) [Example 1, 1-cyclopropyl-6,8-difluoro-1,4-dihydro-7-(4-methylamino-1,3,3a,4,7,7a-hexahydro-isoindol-2-yl)-4-oxo-3-quinolinecarboxylic acid]	0.5 (≈ 1.2 µM)	0.02 (≈ 0.0481 µM)	0.06 (≈ 0.144 µM)	0.06 (≈ 0.144 µM)	0.06 (≈ 0.144 µM)	0.02 (≈ 0.0481 µM)	0.02 (≈ 0.0481 µM)	0.03 (≈ 0.0722 µM)	0.03 (≈ 0.0722 µM)	1 (≈ 2.41 µM)										
CNC1C=CC(C)C2CN(c3c(F)cc4c(=O)c(C(=O)O)cn(C5CC5)c4c3F)CC12 (centres unmarked) [Example 6]	1 (≈ 2.33 µM)	0.03 (≈ 0.0699 µM)	0.06 (≈ 0.14 µM)	0.06 (≈ 0.14 µM)	0.13 (≈ 0.303 µM)	0.02 (≈ 0.0466 µM)	0.02 (≈ 0.0466 µM)	0.06 (≈ 0.14 µM)	0.06 (≈ 0.14 µM)	2 (≈ 4.66 µM)										
CNC1C=CCC2CN(c3cc4c(cc3F)c(=O)c(C(=O)O)cn4C3CC3)CC21 (centres unmarked) [Example 2]	2 (≈ 5.03 µM)	0.03 (≈ 0.0755 µM)			0.13 (≈ 0.327 µM)	0.02 (≈ 0.0503 µM)	0.02 (≈ 0.0503 µM)	0.06 (≈ 0.151 µM)	0.06 (≈ 0.151 µM)	2 (≈ 5.03 µM)										
CNC1C=CCC2CN(c3c(F)cc4c(=O)c(C(=O)O)cn(C5CC5)c4c3Cl)CC21 (centres unmarked) [9 B]											0,5 μg/ml	0,02 μg/ml	0,03 μg/ml	0,06 μg/ml	0,06 μg/ml	0,03 μg/ml	0,03 μg/ml	0,02 μg/ml	0,03 μg/ml	1 (≈ 2.32 µM)
CNC1C=CCC2CN(c3nc4c(cc3F)c(=O)c(C(=O)O)cn4C3CC3)CC21.Cl (centres unmarked) [Example 10, 1-cyclopropyl-6-fluoro-1,4-dihydro-7-(4-methylamino-1,3,3a,4,7,7a-hexahydroisoindol-2-yl)-4-oxo-1,8-naphthyridine-3-carboxylic acid hydrochloride]	8	0.06	0.13	0.25	0.25	0.06	0.06	0.25	0.25	4										
Nc1cccc2c1CN(c1c(F)cc3c(=O)c(C(=O)O)cn(C4CC4)c3c1F)C2 [Ref, 7-(4-amino-1,3-dihydro-isoindol-2-yl)-1-cyclopropyl-6,8-difluoro-1,4-dihydro-4-oxo-3-quinolinecarboxylic acid, reference compound]	128 (≈ 322 µM)	0.5 (≈ 1.26 µM)	4 (≈ 10.1 µM)	1 (≈ 2.52 µM)	1 (≈ 2.52 µM)	0.03 (≈ 0.0755 µM)	0.03 (≈ 0.0755 µM)	1 (≈ 2.52 µM)	0.5 (≈ 1.26 µM)	128 (≈ 322 µM)										
